{
  "source": "patent US20100069345A1",
  "about": "“Lanthanide-porphyrin complexes as anti-tumor agents” (priority 2005, published 2010)",
  "key": {"[1]": {"system": "different human liver carcinoma cells", "test": "Cytotoxicity toward different human liver carcinoma cells", "type": "cell-based", "settings": "treatment for 48 h", "description": "Human cervical epitheloid carcinoma cells (HeLa), human hepatocellular carcinoma cells (HepG2 and Hep3B), human breast cancer cells (MCF-7), human coloadenocarcinoma cells (HCT-8), and normal human lung fibroblast cells (CCD-19Lu) were purchased from American Type Culture Collection (ATCC) Rockville, Md., USA. The human hepatocellular cancinoma cells QGY-7703, and the multi-drug resistant cell line QGY-TR50 derived from QGY-7703, were generously provided by Prof. Yong Xie (The Hong Kong University of Science and Technology, Hong Kong PRC). QGY-TR50 cells were isolated and cultured as described (J. Zhou, S. C. Cheng, D. Luo, Y. Xie Biochem. Biophys. Res. Commun. 2001, 280, 1237-1242). Human nasopharyngeal carcinoma cells (SUNE1 and its cisplatin-resistant variant—CNE2) were derived from poorly differentiated NPC in Chinese patients and were generously provided by Dr. S. W. Tsao (The University of Hong Kong, Hong Kong PRC). Cell culture flasks and 96-well microtitre plates were from Nalge Nunc Int. Culture medium, other medium constituents and phosphate buffer saline (PBS) were obtained by Gibco BRL Rockville, Md., USA. Cell Proliferation kit I (MTT) was purchased from Roche. Mannheim, Germany."}, "HeLa cells [2]": {"system": "HeLa cells", "test": "Confocal microscopy with AO/EB staining", "type": "cell-based, human", "settings": "complex 1 0.2 μM 20 h, complex 2b 10 μM 16 h", "description": "Confocal Microscopic Experiment. By examining cell morphology under scanning confocal microscopy, the type of cell death can be distinguished. Early phase of apoptosis is characterized by the formation of apoptotic bodies when the integrity of the cell membrane is maintained without cell lysis. On the other hand, necrosis is characterized by cell lyses with the leaking out of internal cellular components such as DNA. With ethidium bromide (DNA stain) and acridine orange (cell membrane stain) as staining agents, normal, apoptotic and necrotic cells can be distinguished under laser confocal microscopy (Chan et. al., Inorg. Chem. 2002, 41, 3161-3171)."}, "Bid": {"system": "Bid", "test": "Western blotting analysis, Bid", "type": "cell-based, human", "settings": "HeLa, 2 μM, 32 h", "procedure": "Cells were washed in cold phosphate-buffered saline (PBS) at 4° C. and lysed in a buffer containing 0.05 M Tis.HCl (pH 7.5), 0.25 M NaCl, 0.005 M EDTA, 0.05 M NaF, 1 mM DTT and 1% Triton. Cell lysates were collected and the protein concentration of cell lysates was measured using a Protein detection kit (Bio-Rad). Equal amount of proteins was resolved in a 12% SDS-PAGE gel and transferred onto nitrocellulose membranes. The membrane was blocked with a blocking solution (1×TBS, 0.1% Tween-20 with 5% non-fat dry milk) at room temperature for 1 h, and washed three times with washing buffer (1×TBS, 0.1% Tween-20) for 5 min each. The membrane was then incubated with primary antibody (Caspase 3, Bid, PARP and β-Actin respectively) for overnight at 4° C. The membrane was washed three times with washing buffer for 5 min each before incubation with the corresponding secondary antibody (horse anti-mouse IgG or goat anti-rabbit IgG). Membrane was washed again and signals were detected using an ECL detection kit (Amersham Pharmacia Biotech) followed by the exposure to X-ray films (Fujifilm).\nAfter treatment with complex 1 for different time intervals, the expressions of caspase 3, Bid and PARP were detected by the Western blotting analysis. […] Moreover, treatment with complex 1 leads to a reduction in the level of un-cleaved Bid."}, "cytochrome c": {"system": "cytochrome c", "test": "Western blotting of mitochondrial and cytosolic fractions, cytochrome c", "type": "cell-based, human", "settings": "HeLa treated with complex 1", "procedure": "Preparation of Mitochondrial and Cytosolic Fractions. Subcellular fractionations of cells were carried out as described previously with modifications […]. In brief, cells were harvested by centrifugation at 1000 g for 5 min at 4° C. Cell pellets were washed once with ice-cold phosphate-buffered saline and resuspended in 5 volumes of buffer A (20 mM HEPES-KOH, pH 7.5, 10 mM KCl, 1.5 mM MgCl2, 1 mM sodium EDTA, 1 mM sodium EGTA, 1 mM dithiothreitol, 0.1 mM phenylmethylsulfonyl fluoride, 1× proteinase inhibitor mix) containing 250 mM sucrose. After incubation on ice for 15 min, the cells were homogenized with a 25-gauge needle for 20 strokes, and the homogenates were centrifuged at 1,000 g for 5 min at 4° C. […] The protein concentration of cell lysates in different portions was measured using a protein detection kit (Bio-Rad). […] Signals were detected using an ECL detection kit (Amersham Pharmacia Biotech) followed by exposure to X-ray films (Fujifilm).\nAfter treatment with complex 1 for different time intervals, the expressions of caspase 3, Bid and PARP were detected by the Western blotting analysis. […]"}, "HeLa cells [3]": {"system": "HeLa cells", "test": "Effect of 3-MA on 1-induced cytotoxicity (MTT)", "type": "cell-based, human", "settings": "3-MA 10 mM 1 h then 1 for 24 h, P<0.001", "procedure": "HeLa cells were pre-treated with 3-MA (10 mM) for 1 h, and then with 1 for 24 h as indicated. Cell viability was measured using MTT assay *, P<0.001. Effect of 3-MA on 1-induced cytotoxicity. Cells were seeded on 96-well microtitre plates (8×10^3 cells per well). After overnight incubation, the cells were pre-incubated with 3-methyladenine (3-MA, 10 mM) for 1 hour and then in the presence of 1 (DMSO<1%) for 24 h. Cell viability was measured by MTT assay as described before."}},
  "data": [
    {"substance": "[Yb2(OEP)2](μ-OH)2 [Complex 1]", "values": [
      {"measurement": "IC50", "setting": "[1]", "result": "60 to 780", "unit": "nM"},
      {"measurement": "cell morphology (type of cell death) under confocal microscopy", "setting": "HeLa cells [2]", "result": "both living and apoptotic cells were observed"},
      {"measurement": "expression of Bid", "setting": "Bid", "result": "decrease dramatically"},
      {"measurement": "amount of cytochrome c in the cytosolic fraction", "setting": "cytochrome c", "result": "increase"},
      {"measurement": "amount of cytochrome c in the mitochondria", "setting": "cytochrome c", "result": "corresponding decrease"},
      {"measurement": "effect of 3-MA pretreatment on viability of 1-treated cells", "setting": "HeLa cells [3]", "result": "significantly increases cell viability"}
    ]}
  ]
}
